Measured values published in patent US5397777A, “Meso poly(4-sulfonatophenyl) porphines as MRI image enhancing agents” (Health Research, Inc., priority 1993, dated 1995).
Like-named read-outs stand apart in the source and are kept apart here.

Experiments:
[1] = mouse, in vivo; for Ratios of the concentration of porphyrins in liver to kidney / Ratios of the concentration of porphyrins in tumor to muscle: iv
Protocol: Measured concentrations are averages for two mice.
Biodistribution (liver, kidney, muscle and tumor) of the four manganese porphyrins was measured by absorption spectroscopy of ammonia/methanol mixtures and expressed as μg metalloporphyrin per gram of tissue (wet weight). Quantitation was based upon the extinction coefficient for each porphyrin as predetermined in the extraction solutions.
SMT-F (spontaneous mammary carcinoma) was maintained in the laboratory on a biweekly schedule in which 1 mm^3 pieces of tumor were implanted in the flank of DBA/2HaRos-d^+Ha mice. Porphyrins were delivered by intravenous injection in the tail vein.
The distribution of each porphyrin in kidney, liver, muscle and tumor was determined at 1 and 24 hours post injection.

[2] = tested on: SMT-F (spontaneous mammary carcinoma); experiment: Relaxivity in excised tumor tissue at 10.7 MHz; assay type: in vivo, DBA/2HaRos-d^+Ha mice; details: 24 hours post injection; for Relaxivity of tumors excised from mice (relaxation rate of treated minus untreated tissue divided by porphyrin concentration in tumor tissue): 100 mg/kg, 10.7 MHz, 37° C.
Protocol: Relaxation and biodistribution measurements were carried out using procedures known to those skilled in the art, e.g., Fiel et. al., supra. Briefly, the longitudinal relaxation time (T1) for excised tissue was measured at 37° C., with a Praxis II™ relaxometer (Praxis Corporation, San Antonio, Tex.) operating at 10.7 MHz and employing a saturation recovery pulse sequence.
Relaxivity in tumor tissue was measured for each porphyrin on excised tissue at 10.7 MHz, 24 hours post injection of a 100 mg/kg dose (table 3).
*Expressed as the relaxation rate of tissue from treated animals (24 hrs)
minus the relaxation rate of tissue from untreated animal (control)
divided by the concentration of porphyrin in the tumor tissue.

[3] = Hydrophobicity of the porphyrins; assay type: physicochemical; details: rank within the series of four
[4] = tested on: SMT-F (spontaneous mammary carcinoma); experiment: Magnetic resonance imaging of tumor bearing mouse, signal intensity; assay type: in vivo, DBA/2HaRos-d^+Ha mice; details: for tumor appearance in MR image / kidney signal in MR image / Normalized Signal Intensity, confidence interval / Normalized Signal Intensity, range / Normalized Signal Intensity, mean ± SD: 100 mg/kg; for kidney signal in MR image: region of the pelvis; for Normalized Signal Intensity, confidence interval: 99% (t test); for Normalized Signal Intensity, range: control 0.652-0.701; for Normalized Signal Intensity, mean ± SD: control 0.685 ± .015
Protocol: Control (upper left), 1 hour post injection (100 mg/kg) of Mn(III)TPPS3 (upper right), and 24 hours post injection (lower left). […] Image intensity working standards (top to bottom) 28 mM CuSO4 in 1N HCl, 5 mM GdDTPA in isotonic saline and baby oil.
Magnetic resonance images were made using a custom-built small animal (mouse) transmitter/receiving coil similar to the design of Henkelman et al., Small Animal Imaging With A Clinical Imager. Magn. Reson. Med. 4:61-66; 1987, and tuned to 15 MHz for use with a Diasonics™ 0.35 Tesla clinical scanner. Images were made using a TR of 500 msec. and a TE of 50 msec. with a slice thickness of 2.5 mm.
Images were analyzed using a Hewlett Packard Vectra™ ES/12 personal computer with high resolution VGA graphics after digitization via a Dage 70™ camera with Vidicon tube utilizing a Matrox™ MVP AT image capture/display board. Signal intensity measurements were made from selected areas of interest (AOI) using Image-Pro II™ software (Media Cybernetics, Silver Spring, MD). Any suitable similar apparatus and software can of course be used. Generally an entire section (image slice) of tumor was circumscribed using a free-form area of interest option. The area of interest was then represented by a histogram relating pixel frequency to gray level. Each gray level (0-255) was multiplied by its associated frequency. The resulting products were summed and divided by the area of interest in units of centimeter squared. The procedure was repeated three times to determine a mean value for the tumor at each time period. The same procedure was carried out for the midrange working standard (5 mM Gd DTPA).
The visual differences (intensity) noted between control and treated (FIG. 2) were quantitated using mean intensity values normalized to corresponding working standards. The results (table 4) indicate that differences between control and enhanced and between one and 24 hrs are significant. Signal intensity measured at 24 hrs is 21% higher than control and 7% higher than the value determined at 1 hr. Note that this analysis ignores the fact that the increase in intensity at 24 hrs is actually concentrated into a relatively small area of the tumor by averaging over the entire section.

L1210 cells = tested on: L1210 cells; set-up: unit not given beside the values; details: mouse, 48 h

| Compound | Ratios of the concentration of porphyrins in liver to kidney ([1]; 60 min) | Ratios of the concentration of porphyrins in tumor to muscle ([1]; 60 min) | Ratios of the concentration of porphyrins in liver to kidney ([1]; 1440 min) | Ratios of the concentration of porphyrins in tumor to muscle ([1]; 1440 min) | Relaxivity of tumors excised from mice (relaxation rate of treated minus untreated tissue divided by porphyrin concentration in tumor tissue) [2] | tumor uptake, tumor/muscle ratio and relaxivity in tumor tissue, overall ranking [2] | also measured |
| --- | --- | --- | --- | --- | --- | --- | --- |
| manganese III meso-[trans-di(4-sulfonato-phenyl)diphenyl]porphine [MnTPPS2(trans)] | 4.4 | 2.3 | 3.8 | 11.6 | 0.296 ± .045 | superior to MnTPPS4 |  |
| manganese III meso-[cis-di(4-sulfonatophenyl)diphenyl]porphine [MnTPPS2(cis)] | 6.4 | 2.8 | 5.5 | 9.7 |  | superior to MnTPPS4 | Relaxivity of tumors excised from mice (relaxation rate of treated minus untreated tissue divided by porphyrin concentration in tumor tissue) ([2]; measurement from one mouse): 0.361 |
| O=S(=O)([O-])c1ccc(-c2c3nc(c(-c4ccc(S(=O)(=O)[O-])cc4)c4ccc([n-]4)c(-c4ccc(S(=O)(=O)[O-])cc4)c4ccc([n-]4)c(-c4ccc(S(=O)(=O)[O-])cc4)c4nc2C=C4)C=C3)cc1.[Mn+3] [MnTPPS4, manganese III meso-tetra(4-sulfonatophenyl)porphine, reference compound] | 0.3 |  | 0.3 |  | 0.207 ± .004 |  | hydrophobicity [3]: the least hydrophobic porphyrin |
| O=S(=O)([O-])c1ccc(-c2c3nc(c(-c4ccc(S(=O)(=O)[O-])cc4)c4ccc([nH]4)c(-c4ccc(S(=O)(=O)[O-])cc4)c4nc(c(-c5ccccc5)c5ccc2[nH]5)C=C4)C=C3)cc1.[Mn+3] [MnTPPS3, manganese III meso-[tri(4-sulfonatophenyl)phenyl]porphine] | 0.7 | 3.2 | 1.8 |  |  | superior to all others in regard to tumor uptake, tumor/muscle ratio and relaxivity in tumor tissue | concentration in kidney [1]: high concentration found in the kidney at 1 hour; kidney clearance [1]: cleared rapidly and concentrated in the urine; tumor appearance in MR image ([4]; 1 hour post injection): the tumor appears somewhat brighter than the control, although it remains homogeneous; kidney signal in MR image ([4]; 1 hour post injection): high intensity signal in the region of the pelvis; kidney signal in MR image ([4]; 1 hour post injection, listed as Mn(III)TPPS3, 100 mg/kg): concentration of porphyrin in kidneys at 1 hour; Normalized Signal Intensity, confidence interval ([4]; 1 hr post injection, tumor): 0.769-0.784; Normalized Signal Intensity, range ([4]; 1 hr post injection, tumor): 0.766-0.780; Normalized Signal Intensity, mean ± SD ([4]; 1 hr post injection, tumor): 0.774 ± .006; tumor appearance in MR image ([4]; 24 hours post injection): the tumor appears very heterogeneous; tumor appearance in MR image ([4]; 24 hours post injection, listed as Mn(III)TPPS3, 100 mg/kg): heterogeneous signal enhancement in tumor at 24 hours; Normalized Signal Intensity, confidence interval ([4]; 24 hrs post injection, tumor): 0.815-0.841; Normalized Signal Intensity, range ([4]; 24 hrs post injection, tumor): 0.820-0.836; Normalized Signal Intensity, mean ± SD ([4]; 24 hrs post injection, tumor): 0.828 ± .007; Signal intensity increase over the value at 1 hr ([4]; 24 hrs vs 1 hr, tumor): 7%; Signal intensity increase over control ([4]; 24 hrs vs control, tumor): 21%; LD50 for L1210 cells in culture at day 2 (L1210 cells): 1010 |
